Assay results taken from publication PMC6957260 (European journal of medicinal chemistry, 2013).

Columns and labels:
[1] = molecular target: T1, rat TRPV1 (Rattus norvegicus, UniProt O35433); assay: functional 45Ca2+ uptake assay, agonism, rat TRPV1 in CHO cells; type: cell-based; conditions: for fold less potency for agonism compared to the parent compound: rat TRPV1, parents 2 and 3, respectively
[2] = molecular target: T1, rat TRPV1; assay: competitive binding assay with [3H]RTX, rat TRPV1 in CHO cells; conditions: parents 2 and 3, respectively
[3] = molecular target: T1, rat TRPV1; conditions: cited from earlier work
[4] = molecular target: human TRPV1 (Homo sapiens, UniProt Q8NER1); type: cell-based
human TRPV1, sequence (Q8NER1 whole entry): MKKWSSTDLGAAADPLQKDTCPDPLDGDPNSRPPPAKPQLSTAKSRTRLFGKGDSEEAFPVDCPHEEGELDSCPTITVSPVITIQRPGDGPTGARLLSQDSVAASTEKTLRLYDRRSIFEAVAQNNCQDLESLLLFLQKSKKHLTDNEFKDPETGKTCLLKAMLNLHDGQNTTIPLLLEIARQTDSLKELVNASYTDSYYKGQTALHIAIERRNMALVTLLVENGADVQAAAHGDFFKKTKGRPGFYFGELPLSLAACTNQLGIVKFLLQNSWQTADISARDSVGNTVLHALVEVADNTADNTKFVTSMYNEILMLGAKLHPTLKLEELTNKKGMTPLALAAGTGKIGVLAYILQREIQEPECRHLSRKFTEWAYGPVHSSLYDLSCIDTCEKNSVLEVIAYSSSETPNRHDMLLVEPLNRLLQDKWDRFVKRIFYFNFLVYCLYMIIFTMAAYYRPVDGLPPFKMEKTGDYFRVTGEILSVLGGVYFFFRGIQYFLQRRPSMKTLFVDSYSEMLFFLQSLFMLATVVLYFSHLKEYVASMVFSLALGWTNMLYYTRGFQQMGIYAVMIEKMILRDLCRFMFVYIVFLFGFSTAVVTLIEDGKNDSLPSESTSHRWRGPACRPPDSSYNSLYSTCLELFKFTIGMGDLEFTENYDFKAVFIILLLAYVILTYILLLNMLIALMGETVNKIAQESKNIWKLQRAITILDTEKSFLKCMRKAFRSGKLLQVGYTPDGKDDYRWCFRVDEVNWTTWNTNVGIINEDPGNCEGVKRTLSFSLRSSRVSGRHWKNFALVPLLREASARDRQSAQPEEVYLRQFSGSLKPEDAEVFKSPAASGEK

[5] = system: hTRPV1; conditions: hTRPV1 in HEK-293 cells, cited from earlier work; for EC50: read-out: agonism EC50
[6] = molecular target: T1, rat TRPV1; type: cell-based

T1 sequence (O35433 whole entry): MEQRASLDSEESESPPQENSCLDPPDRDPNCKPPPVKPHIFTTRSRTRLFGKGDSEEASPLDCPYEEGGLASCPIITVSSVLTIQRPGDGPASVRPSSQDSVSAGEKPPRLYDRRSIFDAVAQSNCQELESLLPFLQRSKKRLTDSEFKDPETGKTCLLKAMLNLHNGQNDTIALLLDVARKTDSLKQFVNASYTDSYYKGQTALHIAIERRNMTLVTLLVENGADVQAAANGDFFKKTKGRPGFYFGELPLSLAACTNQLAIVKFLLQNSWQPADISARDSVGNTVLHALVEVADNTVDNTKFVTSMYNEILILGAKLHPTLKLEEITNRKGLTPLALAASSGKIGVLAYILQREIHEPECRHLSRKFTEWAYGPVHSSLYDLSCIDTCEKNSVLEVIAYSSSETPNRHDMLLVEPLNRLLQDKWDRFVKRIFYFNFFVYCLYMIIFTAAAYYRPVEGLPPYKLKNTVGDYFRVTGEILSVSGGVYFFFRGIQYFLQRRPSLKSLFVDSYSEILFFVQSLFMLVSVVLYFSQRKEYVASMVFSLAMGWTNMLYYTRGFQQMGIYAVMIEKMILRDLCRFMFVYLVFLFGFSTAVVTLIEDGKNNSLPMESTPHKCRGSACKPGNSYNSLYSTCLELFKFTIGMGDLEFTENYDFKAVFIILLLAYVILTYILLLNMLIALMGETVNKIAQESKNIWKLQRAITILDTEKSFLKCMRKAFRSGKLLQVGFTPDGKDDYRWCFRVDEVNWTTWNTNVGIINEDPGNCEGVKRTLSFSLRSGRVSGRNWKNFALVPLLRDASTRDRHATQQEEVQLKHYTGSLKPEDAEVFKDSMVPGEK

C=C(C)[C@]12C[C@@H](C)[C@@]34O[C@](Cc5ccccc5)(O[C@@H]1[C@@H]3C=C(COC(=O)Oc1cc(F)c(O)c(OC)c1)C[C@]1(O)C(=O)C(C)=C[C@@H]41)O2 [Compound 57]
fold less potent than RTX (functional activity, agonism) ([1]; rTRPV1): ca. 5 fold

C=C(C)[C@]12C[C@@H](C)[C@@]34O[C@](Cc5ccccc5)(O[C@@H]1[C@@H]3C=C(COC(=O)Oc1ccc(N)c(OC)c1)C[C@]1(O)C(=O)C(C)=C[C@@H]41)O2 [Compound 62]
fold less potency in binding affinity compared to the parent compound [2]: 4.5 fold
fold less potency for agonism compared to the parent compound [1]: 4 fold

C=C(C)[C@@]12C[C@@H](C)C34OC(Cc5ccccc5)(OC1[C@@H]3C=C(COC(=O)Cc1cc(Br)c(N)c(OC)c1)C[C@]1(O)C(=O)C(C)=C[C@@H]41)O2 (some centres unmarked) [5-bromo-4-amino RTX]
fold more potent than 5′-iodo RTX (antagonism) [3]: 4.5 fold

C=C(C)[C@]12C[C@@H](C)[C@@]34O[C@](Cc5ccccc5)(O[C@@H]1[C@@H]3C=C(COC(=O)Oc1cc(F)c(N)c(OC)c1)C[C@]1(O)C(=O)C(C)=C[C@@H]41)O2 [Compound 64]
mean % of agonism relative to capsaicin [4]: a The mean % of agonism relative to capsaicin: 52% for 58, 90% for 64.

C=C(C)[C@]12C[C@@H](C)[C@@]34O[C@](Cc5ccccc5)(O[C@@H]1[C@@H]3C=C(COC(=O)Oc1ccc(NS(C)(=O)=O)c(OC)c1)C[C@]1(O)C(=O)C(C)=C[C@@H]41)O2 [Compound 63]
fold less potency in binding affinity compared to the parent compound [2]: 5.5 fold
fold less potency for agonism compared to the parent compound [1]: 40 fold

C=C(C)[C@]12C[C@@H](C)[C@@]34O[C@](Cc5ccccc5)(O[C@@H]1[C@@H]3C=C(COC(=O)Oc1cc(Cl)c(O)c(OC)c1)C[C@]1(O)C(=O)C(C)=C[C@@H]41)O2 [Compound 58]
mean % of agonism relative to capsaicin [1]: a The mean % of agonism relative to capsaicin: 13% for 58, 89% for 63, 83% for 64.
mean % of agonism relative to capsaicin [4]: a The mean % of agonism relative to capsaicin: 52% for 58, 90% for 64.

C=C(C)[C@]12C[C@@H](C)[C@@]34O[C@](Cc5ccccc5)(O[C@@H]1[C@@H]3C=C(COC(=O)Oc1cc(I)c(O)c(OC)c1)C[C@]1(O)C(=O)C(C)=C[C@@H]41)O2 [Compound 60]
fold more potent than RTX (agonism) [5]: ca. 4 fold
EC50 [5]: 0.0047 nM

C=C(C)[C@]12C[C@@H](C)[C@@]34O[C@](Cc5ccccc5)(O[C@@H]1[C@@H]3C=C(COC(=O)Oc1cc(Cl)c(N)c(OC)c1)C[C@]1(O)C(=O)C(C)=C[C@@H]41)O2 [Compound 65]
fold more potent than I-RTX (antagonism) [6]: ca. 5 fold

C=C(C)[C@]12C[C@@H](C)[C@@]34O[C@](Cc5ccccc5)(O[C@@H]1[C@@H]3C=C(COC(=O)Oc1cc(Br)c(N)c(OC)c1)C[C@]1(O)C(=O)C(C)=C[C@@H]41)O2 [Compound 66]
fold more potent than I-RTX (antagonism) [6]: ca. 5 fold

C=C(C)[C@]12C[C@@H](C)[C@@]34O[C@](Cc5ccccc5)(O[C@@H]1[C@@H]3C=C(COC(=O)Cc1ccc(O)c(OC)c1)C[C@]1(O)C(=O)C(C)=C[C@@H]41)O2 [Compound 1, Resiniferatoxin, reference compound]
EC50 [5]: 0.019 nM
